In publication PMC5320518, “Novel Liver-targeted conjugates of Glycogen Phosphorylase Inhibitor PSN-357 for the Treatment of Diabetes: Design, Synthesis, Pharmacokinetic and Pharmacological Evaluations” (Scientific Reports, 2017):
Where two headings read alike, the source gives them in different places.

Tests used:
isolated rat hepatocytes = test: Glycogenolysis inhibition in isolated rat hepatocytes; assay type: cell-based; conditions: mean ± S.D. of three, NI means no inhibition
Excerpt: (§1) To evaluate the effects of all compounds in cells, the glycogenolysis assays were established in both rat and human liver cells based on the published method. […] The inhibitory activities of the derivatives of PSN-357 (e.g. 25–28) were also explored. It is not surprising that the derivatives still retained micromolar inhibitory activities. Introduction of steric bulks to the hydroxyl group (e.g. 33, 40, 42, 48) led to a complete loss of activity. Data analysis indicated no clear SAR for the substitutents in the cell-based assays.
(§2) The inhibition of hepatic glycogenolysis was monitored by the measurement of liver glycogen, which was done quantitatively by the anthrone reagent (Sigma) colorimetric method based on the published method. Isolated rat hepatocytes or HepG2 cells (Sigma) were treated with the test compound or DMSO solvent (final concentration, 0.10%), followed by 60-min incubation with 0.3 nM glucagon (GGN). Assays were terminated by centrifugation, and cells were digested with 30% KOH followed by glycogen determination. The IC50 values were estimated by fitting the inhibition data to a dose-dependent curve using a logistic derivative equation.

[1] = Stability in simulated gastric fluid (SGF); assay type: in vitro ADME; conditions: SGF pH 1.21 with pepsin, 2 μM, 37 °C, 24 h incubation
Procedure: (§3) All the conjugates were tested for their chemical and metabolic stability in multiple assays, including simulated gastric fluid (SGF), simulated interstinal fluid (SIF), mouse plasma, and mouse liver microsome (MLM).
(§4) For the stability in SGF (Fig. 8) and SIF (Fig. 9), the conjugates could be divided into three groups: (1) stable conjugates 2, 6 and 9. […] The two conjugates were degraded within 6 h and 1 h in SGF and SIF, respectively, with alomost no conjugates at the end of the 24 h incubation in both SGF and SIF; (3) complicated conjugates 3, 4, 5 and 8.
(§5) The simulated gastrointestinal fluids were prepared according to USP specifications. For SGF, NaCl (0.12 g) and pepsin (0.18 g, from porcine stomach mucosa) was dissolved in HCl (0.42 mL) and sufficient H2O was added to make 60 mL. The pH of the test solution was determined as 1.21 by pH meter. For the SIF, KH2PO4 (0.408 g) and pancreatin (0.6 g, from porcine pancreas) was dissolved in H2O (60 mL). The pH of the test solution was determined as 6.79 by pH meter. Each test compound was dissolved in DMSO and diluted to a final concentration of 2 μM in SIF and SGF. The final concentrations of DMSO and CH3CN in the incubation mixture were 0.2% and 0.45%. Aliquots of these solutions were pipetted into glass tubes, and placed in a 37 °C shaking water bath. Test samples at corresponding time point (1, 2, 6, 24 h) were removed at the end of incubation time and immediately mixed with 800 μL of cold acetonitrile containing 500 ng/mL tolbutamide (internal standard). Samples were subjected to centrifuge at 4000 rpm, 4 °C for 20 min. Aliquots 60 μL of supernatant was combined with 120 μL water for LC-MS/MS analysis.

[2] = Stability in simulated intestinal fluid (SIF); assay type: in vitro ADME; conditions: SIF pH 6.79 with pancreatin, 2 μM, 37 °C, 24 h incubation
Procedure: as §3, §4, §5

[3] = Biodistribution and pharmacokinetics in plasma and liver after intravenous administration in mice; assay type: in vivo; conditions: 5 mg/kg intravenous; for AUC(0-t) / Cmax: iv
Procedure: Based on the results of the potency and in vitro stability studies, conjugate 6 was selected for in vivo pharmacokinetic analysis following a single intravenous injection of 5 mg/kg in male C57 BL/6. Doses of PSN-357 intravenous were used as standard regimens for comparison.
Male C57 BL/6 mice (18–20 g, 5–6 weeks old) were provided by the Laboratory Animal Center of Academy of Military Medical Science of People’s Liberation Army, and were reared in standard rodent cages in animal house of Chengde Medical University, under the condition of a constant temperature of 24 °C (±2 °C) and a 12 h light/dark cycle. PSN-357 and conjugate 6 were injected through the caudal vein. For each sampling time point, three mice were treated with a single dose of either PSN-357 or conjugate 6 at 5 mg/kg in 10% DMSO/saline solutions. Blood and liver samples were taken at 0.0833, 0.25, 0.5, 1, 2, 4, 6 and 24 h following intravenous administration, and stored at −80 °C until analysis. Aliquots of all biological matrixes were deproteinized with a mixture of methanol/acetonitrile (1:1). The suspension was vortexed, mixed, and centrifuged at 13000 rpm for 10 min. The organic phase was injected into the LC-MS/MS system. PK calculations and statistical comparisons on PK data were performed according to a non-compartmental kinetic model with validated software (Kinetica™ version 5.1, Thermo Electron Corporation, USA).

HepG2 cells = test: Glycogenolysis inhibition in HepG2 cells; assay type: cell-based, human; conditions: HepG2 cells, 60-min incubation with 0.3 nM glucagon, mean ± S.D. of three, NI means no inhibition, read-out: IC50 (glycogenolysis inhibition, HepG2 cells)
Excerpt: as §1, §2

[4] = male, C57 BL/6, mouse, liver tissue, read-out: MRT0-t, liver
[5] = male, C57 BL/6, mouse, liver, 5 mg/kg, liver tissue, read-out: AUC0-t, liver
[6] = male, C57 BL/6, mouse, plasma, read-out: MRT0-t, plasma
[7] = male, C57 BL/6, mouse, plasma, 5 mg/kg
[8] = male, C57 BL/6, mouse, plasma, 5 mg/kg, plasma, read-out: AUC0-t, plasma

SMILES | IC50 (isolated rat hepatocytes; Rattus norvegicus, Hepatocyte, 1 h, read-out: IC50 (glycogenolysis inhibition, rat hepatocytes), isolated rat hepatocytes, 60-min incubation with 0.3 nM glucagon) | IC50 (isolated rat hepatocytes; read-out: IC50 (glycogenolysis inhibition, rat hepatocytes), isolated rat hepatocytes, 60-min incubation with 0.3 nM glucagon) | stability in SGF (in words) [1] | stability in SIF (in words) [2] | Cmax, liver ([3]; liver tissue) | MRT last [3, 4] | AUC(0-t) [3, 5] | MRT last [3, 6] | concentration at 240 min ([3]; male, C57 BL/6, mouse, plasma, 240 min, read-out: plasma concentration at 240 min after dosing) | Cmax [3, 7] | AUC(0-t) [3, 8] | Cmax, plasma ([3]; plasma, 5 mg/kg) | IC50 (HepG2 cells) | IC50 (HepG2 cells; Homo sapiens, HepG2, 1 h) | IC50 (isolated rat hepatocytes; Hepatocyte, 1 h, isolated rat hepatocytes, 60-min incubation with 0.3 nM glucagon, read-out: IC50 (glycogenolysis inhibition, rat hepatocytes)) | AUC0-t, liver ([3]; liver tissue, 5 mg/kg) | Kp ([3]; male, C57 BL/6, mouse, liver and plasma, read-out: AUCliver/AUCplasma ratio) | AUC0-t, plasma ([3]; plasma, 5 mg/kg) | time of secondary peak in plasma ([3]; plasma, perhaps due to enterohepatic circulation)
C[C@H](CCC(=O)N[C@@H](CC(=O)O)C(=O)OC1CCN(C(=O)[C@H](Cc2ccc(F)cc2)NC(=O)c2cc3cc(Cl)ncc3[nH]2)CC1)[C@H]1CC[C@H]2[C@@H]3[C@H](O)C[C@@H]4C[C@H](O)CC[C@]4(C)[C@H]3C[C@H](O)[C@]12C [Conjugate 6] | 13.4 µM | 13.4 ± 2.55 µM | stable | stable up to 24 h | 3.09455 µg/mL | 4.42 h | 3.98 µg·h/mL | 7.52 h | 0.097 µg/mL | 0.726 µg/mL | 1.52 µg·h/mL | 0.7262 µg/mL | 6.12 ± 1.38 µM | 6.1 µM | – | – | – | – | –
O=C(N[C@@H](Cc1ccc(F)cc1)C(=O)N1CCC(O)CC1)c1cc2cc(Cl)ncc2[nH]1 [PSN-357] | – | – | – | – | 6.67785 µg/mL | 4.52 h | 9.71 µg·h/mL | 3.18 h | – | 0.628 µg/mL | 0.965 µg·h/mL | 0.62835 µg/mL | – | 3.1 ± 0.37 µM | 10.7 ± 2.73 µM | 9.71194 µg·h/mL | 10.1 | 0.96516 µg·h/mL | 60 min
